Several values for one entry are separate records, joined by “and”; a condition that tells them apart may be missing. Equal entries are not always repeated.
Assays:
[1] = cited from earlier work; for Phase transition temperature (Tm): Table 1, SO to LD, phospholipid bilayers
[2] = LD phase (above Tm); cited from earlier work
[3] = Partial specific adiabatic compressibility of the lipid bilayer; format: physicochemical
Experimental: • (i) phospholipid (PL) concentration, using the modified Bartlett assay^37, 38; • (ii) size distribution, for liposomes under 1 μm by dynamic light scattering using an ALV-NIBS High Performance Particle Sizer (Langen, Germany) at a scattering angle of 173°; and for liposomes above 400 nm by light diffraction using a Beckman Coulter LS Particle Size Analyzer 13-320 (Fullerton, Calif.), equipped with polarization intensity differential scattering (PIDS) to provide a dynamic detection range from 40 nm to 2000 μm; • (iii) partial specific adiabatic compressibility, by calculation from the density of the liposome dispersion (using a DMA 5000 density meter, Anton Paar, Graz, Austria) and the velocity of an 5 MHz ultrasonic wave traveling through it (using a UCC-12 ultrasonic velocimeter, NDT Instruments, Jerusalem, Israel), as described by Garbuzenko et al.^39; and • (iv) structure, using scanning electron microscopy (SEM). Cartilage: Articular cartilage from healthy or osteoarthritis humans (aged 65 to 86 years) was obtained from femoral head fracture operations or total hip replacements. Tissue was classified as normal or pathological according to the visual diagnosis. For wear rate determination, only femoral heads with normal tissue were selected. Specimens were frozen at −20° C. until sample preparation in order to keep the mechanical properties close to those of live tissue. Pairs of cylindrical plugs, having 4 mm and 8 mm in diameter, each pair from the same region of the joint, were prepared. These cylindrical plugs, consisting of about 2 mm thick cartilage on top of about 8 mm long bone, were removed from the femoral head using a cork borer. The plugs were glued to holders through the bone part, using cyanoacrylate-based adhesive glue, leaving the cartilage projecting out of the holders. Thereafter, these plugs were refrozen at −20° C. until tested. Cartilage with completely intact and smooth surface was used. Friction and wear testing: Liposomes covering a wide range of sizes and concentrations, dispersed in HB, were screened as potential lubricants to reduce friction and wear between two discs of human cartilage at 24° C. and 37° C. […] For the a qualitative evaluation of wear, the effect of friction tests on the concentration of total PL in cartilage, and on the structure of the cartilage surface was determined. PL extraction and quantification: Total PL were extracted from cartilage specimens before and after lubrication tests, using the Bligh and Dyer extraction procedure^41, 42. […]

[4] = test system: joints of osteoarthritis patients; details: injection into joints of osteoarthritis patients; cited from earlier work
[5] = test system: human articular cartilage; experiment: Wear determination test (GAG content in wear debris); details: added to ISF 1:1; after run-in period; 60 N (4.8 MPa)
Experimental: • (i) phospholipid (PL) concentration, using the modified Bartlett assay^37, 38; • (ii) size distribution, for liposomes under 1 μm by dynamic light scattering using an ALV-NIBS High Performance Particle Sizer (Langen, Germany) at a scattering angle of 173°; and for liposomes above 400 nm by light diffraction using a Beckman Coulter LS Particle Size Analyzer 13-320 (Fullerton, Calif.), equipped with polarization intensity differential scattering (PIDS) to provide a dynamic detection range from 40 nm to 2000 μm; • (iii) partial specific adiabatic compressibility, by calculation from the density of the liposome dispersion (using a DMA 5000 density meter, Anton Paar, Graz, Austria) and the velocity of an 5 MHz ultrasonic wave traveling through it (using a UCC-12 ultrasonic velocimeter, NDT Instruments, Jerusalem, Israel), as described by Garbuzenko et al.^39; and • (iv) structure, using scanning electron microscopy (SEM). […] For the a qualitative evaluation of wear, the effect of friction tests on the concentration of total PL in cartilage, and on the structure of the cartilage surface was determined. PL extraction and quantification: Total PL were extracted from cartilage specimens before and after lubrication tests, using the Bligh and Dyer extraction procedure^41, 42. […]

Row | Compound | SO-to-LD phase transition temperature, Tm [1] | Phase transition temperature (Tm) [1] [°C] | other results
1 | CCCCCCCCCCCCCCC(=O)OC[C@H](COP(=O)([O-])OCC[N+](C)(C)C)OC(=O)CCCCCCCCCCCCCC [1,2-dipentadecanoyl-sn-glycero-3-phosphocoline] | 33.0 °C | – | –
2 | CCCCCCCCCCCCCC(=O)OC[C@H](COP(=O)([O-])OCC[N+](C)(C)C)OC(=O)CCCCCCCCCCCCC [DMPC, 1,2-dimyristoyl-sn-glycero-3-phosphocholine] | 23.2 °C and 23 °C | 23.2 | water molecules per headgroup [2]: ~9.7 water molecules per headgroup; partial specific adiabatic compressibility, K ([3]; 24° C.): 46.4 ×10^−6 mL/(g-atm); partial specific adiabatic compressibility, K ([3]; 37° C.): 50.7 ×10^−6 mL/(g-atm)
3 | CCCCCCCCCCCCCC(=O)OCC(COP(=O)(O)OCC(O)CO)OC(=O)CCCCCCCCCCCCC (stereo not drawn) [DMPG] | 23 °C | – | –
4 | CCCCCCCC/C=C\CCCCCCCC(=O)OC[C@H](COP(=O)([O-])OCC[N+](C)(C)C)OC(=O)CCCCCCC/C=C\CCCCCCCC [DOPC, 1,2-dioleoyl-sn-glycero-3-phosphocholine] | – | −21 | –
5 | CCCCCCCCCCCCCCCC(=O)OC[C@H](COP(=O)([O-])OCC[N+](C)(C)C)OC(=O)CCCCCCCCCCCCCCC [DPPC, 1,2-dipalmitoyl-sn-glycero-3-phosphocholine] | 41.4 °C | 41.4 | water molecules per headgroup [2]: ~9.7 water molecules per headgroup; duration of mobility improvement [4]: up to 14 weeks; side effects [4]: without major side effects; partial specific adiabatic compressibility, K ([3]; 24° C.): 28.0 ×10^−6 mL/(g-atm); partial specific adiabatic compressibility, K ([3]; 37° C.): 31.2 ×10^−6 mL/(g-atm)
6 | CCCCCCCCCCCCCCCC(=O)OCC(COP(=O)(O)OCC(O)CO)OC(=O)CCCCCCCCCCCCCCC (stereo not drawn) [DPPG] | 41.4 °C | – | –
7 | CCCCCCCCCCCCC/C=C/[C@@H](O)[C@H](COP(=O)([O-])OCC[N+](C)(C)C)NC(=O)CCCCCCCCCCCCCCC [N-palmitoyl SM] | 41.4 °C and 41.0 °C | – | –
8 | hyaluronic acid [HA] | – | – | reduction of constant wear rate compared with ISF alone [5]: ~10%

— patent US8895054B2, “Methods for joint lubrication and cartilage wear prevention making use of glycerophospholipids” (Technion Research and Development Foundation Ltd., priority 2006, dated 2014)
